Earlier results, collected in patent US20060074057A1, “Use of chenodeoxycholic acid for reducing adipose tissue” (priority 2004, published 2006).

Biological target: 11-beta-hydroxysteroid dehydrogenase type 1 (11BHSD1) (Homo sapiens, UniProt P28845)
Conditions: "has been shown"; no data or method given

Sequence of 11-beta-hydroxysteroid dehydrogenase type 1 (11BHSD1) (P28845 whole entry): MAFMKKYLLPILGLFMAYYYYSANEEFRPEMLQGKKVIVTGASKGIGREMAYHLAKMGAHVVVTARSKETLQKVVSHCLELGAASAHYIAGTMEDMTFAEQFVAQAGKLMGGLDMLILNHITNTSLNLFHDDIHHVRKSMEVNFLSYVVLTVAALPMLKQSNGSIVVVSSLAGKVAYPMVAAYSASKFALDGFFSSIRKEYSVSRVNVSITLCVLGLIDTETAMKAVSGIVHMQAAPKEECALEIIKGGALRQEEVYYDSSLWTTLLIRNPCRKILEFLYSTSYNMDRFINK

In the case of `CC(CCC(=O)O)C1CCC2C3C(CC[C@]12C)[C@@]1(C)CC[C@@H](O)C[C@H]1C[C@H]3O` (stereo partly drawn) [Chenodeoxycholic acid, 3-alpha,7-alpha-dihydroxy-5-beta-cholanic acid], the “inhibition of 11BHSD1 (result in words)” value is listed as “selective inhibitor”.
